# Assay results from patent publication US20070154534A1, “Use of secretin in the treatment of schizophrenia” (priority 2003, published 2007).
# Marks after values point to notes of the source that are not given here. Ends that are not written are not given here.
# Columns and labels:
# [1] = clinical units (CU); 0.2 mcg = 1 CU; cited from earlier work
# [2] = tested on: patients with refractory schizophrenia; test: Double-blind placebo-controlled pilot study of a single intravenous dose of porcine secretin, rated with PANSS and CGI; format: in vivo, human; settings: for PANSS negative: baseline 25.5; for PANSS positive: baseline 27; for PANSS general: baseline 48.7; for PANSS total: baseline 101.2
# Procedure: A pilot study of secretin for treatment of refractory schizophrenia was performed. Twenty-two patients were randomized to a single intravenous dose of porcine secretin or placebo. Patients were evaluated with the Positive and Negative Symptom Scale for Schizophrenia (PANSS) and the Clinical Global Impression Scale (CGI) at baseline, two days after secretin infusion and weekly for four weeks. Several patients treated with secretin experienced clinically meaningful, though transient when given a single dose, reductions in symptoms and a greater percentage of patients treated with secretin were rated as improved with the CGI.
# All subjects were inpatients at Dorothea Dix Hospital in Raleigh, N.C. United States of America. The protocol was approved by the University of North Carolina at Chapel Hill Committee for the Protection of the Rights of Research Subjects. Subjects or their guardians provided written informed consent. Patients met the following inclusion criteria: (1) age 18-60; (2) DSM-IV diagnosis of schizophrenia or schizoaffective disorder; (3) severe residual symptoms despite at least three adequate trials of anti-psychotic drugs, including at least one atypical drug. Residual symptoms were defined as active delusions, hallucinations, or thought disorder, accompanied by unemployment and lack of significant social relationships outside the family of origin; (4) a baseline PANSS score of at least 70; (5) no changes in psychotropic medications for 4 weeks prior to study entry.
# Subjects were assessed at baseline, two days post-infusion, and weekly for four subsequent weeks, with the Clinical Global Impression Scale (CGI) and the Positive and Negative Symptom Scale for Schizophrenia (PANSS). All raters achieved inter-rater reliability of at least 0.90 for the PANSS, and each subject had the same rater for each assessment. Qualitative impressions were also collected from clinical staff during the course of the trial.
# [3] = tested on: patients with refractory schizophrenia; settings: in vivo, iv
# Procedure: Twenty-two subjects were enrolled in the protocol and were randomly assigned to receive one dose of intravenous porcine secretin (SECRETIN-FERRING™, Ferring Laboratories, Inc., Suffern, N.Y., United States of America) or normal saline under double-blind conditions. The protocol allowed for only one infusion of secretin regardless of response. The first seven subjects received either 75 CU of secretin dissolved in 7.5 mL of normal saline (n=4), or saline alone (n=3). The remaining 15 subjects received 150 CU of secretin (n=7) or saline (n=8).
# [4] = Week 1, single i.v. dose 75 or 150 CU, n=11, mean
# [5] = Week 1 after single i.v. dose 75 or 150 CU, n=11, mean
# [6] = Week 2, single i.v. dose 75 or 150 CU, n=11, mean
# [7] = Week 2 after single i.v. dose 75 or 150 CU, n=11, mean
# [8] = Week 3, single i.v. dose 75 or 150 CU, n=11, mean
# [9] = Week 3 after single i.v. dose 75 or 150 CU, n=11, mean
# [10] = Week 4, single i.v. dose 75 or 150 CU, n=11, mean
# [11] = Week 4 after single i.v. dose 75 or 150 CU, n=11, mean
# [12] = within the first week after infusion, of 11 secretin-treated patients
substance,measurement,setting,value
"SECREFLO: Secretin commercially available under the trademark SECREFLO from RepliGen Corporation (HSDGTFTSELSRLRDSARLQRLLQGLV-NH2; ends and bridges not checked; UniProt P63298 33-59, looked up)",Potency per milligram of peptide,[1],approximately 5000 CU per milligram
Secretin,Patients with a clinically meaningful response,[2]; 75 CU single i.v. dose,1 of 4
same,Patients with a clinically meaningful response,[2]; 150 CU single i.v. dose,2 of 7
same,CGI-I,"[2]; Day 2 after single i.v. dose 75 or 150 CU, n=11, mean (SD)",3.5 (0.8)*
same,"Group by time interaction for the CGI-Improvement (CGI-I) scale (repeated measures ANOVA, vs placebo)",[2]; F=0.69,no significant group by time interaction
same,"Group by time interaction for PANSS total, positive, negative and general psychopathology scores (repeated measures ANOVA, vs placebo)","[2]; F=1.72, 1.08, 0.6679, 0.41",no significant group by time interactions
same,PANSS negative,[2]; [4],24.3
same,PANSS positive,[2]; [4],25
same,PANSS general,[2]; [4],45.8
same,CGI-I,[2]; [5],3.4*
same,PANSS total,[2]; [5],95.1
same,PANSS negative,[2]; [6],24.7
same,PANSS positive,[2]; [6],26.9
same,PANSS general,[2]; [6],49.2
same,CGI-I,[2]; [7],3.9
same,PANSS total,[2]; [7],100.8
same,PANSS negative,[2]; [8],24.9
same,PANSS positive,[2]; [8],27
same,PANSS general,[2]; [8],48.2
same,CGI-I,[2]; [9],3.8*
same,PANSS total,[2]; [9],100.1
same,PANSS negative,[2]; [10],24.5
same,PANSS positive,[2]; [10],26.7
same,PANSS general,[2]; [10],48.3
same,CGI-I,[2]; [11],3.9
same,PANSS total,[2]; [11],99.5
same,Time until reversion to usual behavior and level of function,"[2]; patient of Example 1, 75 CU",four
same,Time to onset of clinical improvement (more interactive),"[2]; patient of Example 1, person, disorganized schizophrenia, 75 CU",≤ 24 h
same,Time until return to baseline mental state,"[2]; patient of Example 2, 150 CU",≤ 12 h
same,"Time to onset of clinical improvement (more alert, coherent speech)","[2]; patient of Example 2, person, disorganized schizophrenia, 150 CU",six
same,Time after infusion at which improvement was seen (agreed to attend off ward activities),"[2]; patient of Example 3, person, paranoid schizophrenia, 150 CU",48 h
same,"CGI-I scale vs placebo, post-hoc exploratory Student's t-tests","[2]; two days after infusion (p=0.03), week 1 (p=0.009), week 3 (p=0.002)",significant improvement
same,Patients rated as minimally improved (qualitative grouping of CGI-I scores),[2]; [12],five
same,Patients rated as much improved (qualitative grouping of CGI-I scores),[2]; [12],three
same,Patients rated as unchanged (qualitative grouping of CGI-I scores),[2]; [12],two
same,Patients rated as worse (qualitative grouping of CGI-I scores),[2]; [12],one
same,Allergic reactions,[3],no allergic reactions were observed
same,Premature dropouts or serious adverse events during the trial,[3],no premature dropouts or serious adverse events
same,Side effects,[3],no side effects noted
"biologically derived porcine secretin: biologically derived porcine secretin, comparison for SECREFLO potency (HSDGTFTSELSRLRDSARLQRLLQGLV; ends and bridges not checked; UniProt P63298 33-59, looked up)",Potency per milligram of peptide,[1],3000 CU per milligram
